US9821002B2, “Method for alleviating radiation injury with isorhamnetin-3-O-β-D-glucoside” (Sinotai Oncology Associate., Ltd., priority 2015, dated 2017)

Columns and labels:
[1] = test system: cleaved caspase-9 in NMuMG cells; assay: Expression profile of cleaved caspase-9 (Western Blotting) after X-ray irradiation; format: cell-based, mouse; conditions: 15 and 30 μM, 2 h pretreatment, X-ray 15 Gy, 48 hours, normalized to β-actin
From the text: (§1) Four groups of BNL CL.2 cells (i.e., a normal control group referred to as Normal Control Group 1-A, an X-ray control group referred to as X-Ray Control Group 1-A, and two experimental groups referred to as Experimental Groups 1-A to 2-A), and six groups of NMuMG cells (i.e., a normal control group referred to as Normal Control Group 1-B, an X-ray control group referred to as X-Ray Control Group 1-B, two isorhamnetin groups referred to as Isorhamnetin Groups 1 to 2, and two experimental groups referred to as Experimental Groups 1-B to 2-B), were prepared based on the procedure set forth in “Source and cultivation of cell lines” of “Experimental materials”. BNL CL.2 cells in each group were cultivated using 5 mL of a corresponding medium shown in Table 1 and a 6-cm Petri dish in an amount of 2×10^5 cells per dish. […]
(§2) Subsequently, the culture in each group was cultivated in an incubator (37° C., 5% CO2) for 48 hours, and 120 μL of lysis buffer containing CelLytic™ M protein extraction reagent (Sigma-Aldrich) and proteinase inhibitor cocktail (Sigma-Aldrich) was added to the culture in each group, followed by mixing evenly. […] Protein concentration in the total protein sample was determined by means of the Bio-Rad Protein Assay Kit. […]
(§3) Subsequently, ImageScanner Imaging Software was used for analysis, such that the corresponding protein expression level was semi-quantitatively calculated. […]

[2] = test system: cleaved caspase-9 in BNL CL.2 cells; assay: as above; format: cell-based, mouse; conditions: 5 and 30 μM, 2 h pretreatment, X-ray 15 Gy, 48 hours, normalized to β-actin
From the text: as §1, §2, §3

## COc1cc(-c2oc3cc(O)cc(O)c3c(=O)c2O[C@@H]2O[C@H](CO)[C@@H](O)[C@H](O)[C@H]2O)ccc1O [isorhamnetin-3-O-β-D-glucoside]
[1]
  expression level of cleaved caspase-9 versus X-ray control group: significant reduction in expression level of cleaved caspase-9
[2]
  expression level of cleaved caspase-9 versus X-ray control group: significant reduction in expression level of cleaved caspase-9
